Measurements: patent US11873298B2, “Compounds and uses thereof” (JANSSEN PHARMACEUTICA NV, priority 2017, dated 2024)

Key:
[1] = target: T1, SCD1 (Homo sapiens, UniProt O00767); assay: Growth inhibition of humanized yeast strain expressing SCD1 as sole desaturase; type: cell-based; settings: humanized yeast strain, 40 h
T1 construct: host or cells: S. cerevisiae ole1Δ strain (W303 pdr1Δ pdr3Δ background), plasmid pRS316 with TDH3 promoter and CYC1 terminator
T1 sequence (O00767 1-359): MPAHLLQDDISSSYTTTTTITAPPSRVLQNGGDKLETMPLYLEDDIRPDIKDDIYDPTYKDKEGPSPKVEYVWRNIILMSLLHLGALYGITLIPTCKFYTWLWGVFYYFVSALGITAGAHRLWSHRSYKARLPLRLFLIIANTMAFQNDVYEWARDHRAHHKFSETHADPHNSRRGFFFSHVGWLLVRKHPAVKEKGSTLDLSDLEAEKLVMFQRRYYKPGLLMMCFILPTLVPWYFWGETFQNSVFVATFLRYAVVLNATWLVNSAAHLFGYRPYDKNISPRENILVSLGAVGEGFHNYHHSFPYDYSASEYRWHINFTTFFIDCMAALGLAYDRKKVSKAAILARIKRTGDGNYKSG
How it was run: (§1)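 Plasmid-complemented ole1Δ yeast, drug-pump deleted (pdr1Δ pdr3Δ), depend solely on the introduced Ole1, SCD1 or SCD5 desaturase. Compounds are added from DMSO to cells in uracil-free galactose medium, 2× density 0.02, and OD600 is read after 24 h or 40 h respectively.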

[2] = target: T2, SCD5 (Homo sapiens, UniProt Q86SK9); assay: Growth inhibition of humanized yeast strain expressing SCD5 as sole desaturase; type: cell-based; settings: humanized yeast strain, 40 h
T2 construct: host or cells: S. cerevisiae ole1Δ strain (W303 pdr1Δ pdr3Δ background), plasmid pRS316 with TDH3 promoter and CYC1 terminator
T2 sequence (Q86SK9 1-330): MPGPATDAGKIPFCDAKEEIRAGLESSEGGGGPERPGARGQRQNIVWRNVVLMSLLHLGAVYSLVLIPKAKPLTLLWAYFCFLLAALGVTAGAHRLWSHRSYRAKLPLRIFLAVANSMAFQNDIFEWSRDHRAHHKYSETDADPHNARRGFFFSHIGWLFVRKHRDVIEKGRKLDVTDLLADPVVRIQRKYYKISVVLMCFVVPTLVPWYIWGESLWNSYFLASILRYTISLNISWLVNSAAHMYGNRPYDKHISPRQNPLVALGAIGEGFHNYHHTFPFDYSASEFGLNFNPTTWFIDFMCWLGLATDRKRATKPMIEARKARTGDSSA
How it was run: as §1

| Compound | IC50 [1] | IC50 [2] |
| --- | --- | --- |
| CC(C)(C)OC(=O)N1CCN(c2noc(-c3ccnc(NC4COC4)c3)n2)CC1 [Compound 818] | > 45 µM | 0.56 µM |
| COC(=O)N1CCC(c2nc(-c3cccc(C4CCOC4)c3)no2)CC1 (stereo not shown) [Compound 819] | > 45 µM | 3.72 µM |
| CC(C)(C)OC(=O)N1CCC(c2nc(-c3ccc4cnn([C@H]5C[C@](C)(O)C5)c4c3)no2)CC1 [Compound 820] | > 45 µM | 3.74 µM |
| CC(C)(C)OC(=O)N1CCC(c2nc(-c3ccc4cnn([C@H]5C[C@](C)(O)C5)c4c3)no2)CC1 [Compound 821] | > 45 µM | 5.06 µM |
| CC(C)(C)OC(=O)N1CCC(c2nc(-c3ccc4cnn([C@H]5C[C@@H](O)C5)c4c3)no2)CC1 [Compound 822] | > 45 µM | 0.111 µM |
| CC(C)(C)OC(=O)N1CCC(c2nc(-c3ccc4cnn([C@H]5C[C@@H](O)C5)c4c3)no2)CC1 [Compound 823] | > 45 µM | 0.119 µM |
| CC(C)(C)OC(=O)N1CCC(c2nc(-c3cccc(C4CCCOC4)c3)no2)CC1 (stereo not shown) [Compound 824] | > 45 µM | 0.932 µM |
| CC(C)(C)OC(=O)N1CCC(c2nc(-c3ccc4cncn4c3)no2)CC1 [Compound 825] | > 45 µM | 9.49 µM |
| CC(C)n1cc2c(n1)CN(c1noc(C3CCN(C(=O)OC(C)(C)C)CC3)n1)CC2 [Compound 826] | > 45 µM | 1.99 µM |
| CC(C)n1ncc2c1CN(c1noc(C3CCN(C(=O)OC(C)(C)C)CC3)n1)CC2 [Compound 827] | > 45 µM | > 45 µM |
| CC(C)n1ncc2ccc(-c3nc(N4CCn5c(Cl)cnc5C4)no3)cc21 [Compound 828] | > 45 µM | 0.067 µM |
| CC(C)(C)OC(=O)N1CCN(c2nc(-c3cccc(C4CCOC4)c3)no2)CC1 (stereo not shown) [Compound 829] | > 45 µM | 2.2 µM |
| COC1(C2CCN(c3nc(-c4ccc5cnn(C(C)C)c5c4)no3)CC2)COC1 [Compound 830] | > 45 µM | > 45 µM |
| CC(C)(C)OC(=O)N1CCN(c2noc(-c3ccc4c(c3)C3(CCC3)OC4)n2)CC1 [Compound 831] | > 45 µM | 1.2 µM |
| CC(C)n1ncc2ccc(-c3noc(C4(O)CCN(C(=O)OC(C)(C)C)CC4)n3)cc21 [Compound 832] | > 45 µM | 11.6 µM |
| CC(C)(C)OC(=O)N1CCC(c2nc(-c3ccn4cnc(C#N)c4c3)no2)CC1 [Compound 833] | > 45 µM | > 45 µM |
| COC(=O)N1CCC(c2noc(-c3ccc4cnn(C(CO)CO)c4c3)n2)CC1 [Compound 834] | > 45 µM | > 45 µM |
| CC(C)n1ncc2ccc(-c3cc(C4CCN(C(=O)OC(C)(C)C)CC4)on3)nc21 [Compound 835] | > 45 µM | > 45 µM |
| COC1(c2nc(-c3ccc4cnn(C(C)C)c4c3)no2)CCN(C(=O)OC(C)(C)C)CC1 [Compound 836] | > 45 µM | 1.44 µM |
| COC(=O)N1CCN(c2nc(-c3cccc(C4CCOC4)c3)no2)CC1 (stereo not shown) [Compound 837] | > 45 µM | 12.5 µM |
| O=C(C1CCC1)N1CCN(c2noc(-c3ccc4cnn(C5COC5)c4c3)n2)CC1 [Compound 838] | > 45 µM | 0.021 µM |
| O=C(CC1CC1)N1CCN(c2noc(-c3ccc4cnn(C5COC5)c4c3)n2)CC1 [Compound 839] | > 45 µM | 0.035 µM |
| COCC(COC)n1ncc2ccc(-c3nc(C4CCN(C(=O)OC)CC4)no3)cc21 [Compound 840] | > 45 µM | 20.7 µM |
| CCC(=O)N1CCN(c2noc(-c3ccc4cnn(C5COC5)c4c3)n2)CC1 [Compound 841] | > 45 µM | 0.209 µM |
| CC1(CC(=O)N2CCN(c3noc(-c4ccc5cnn(C6COC6)c5c4)n3)CC2)CC1 [Compound 842] | > 45 µM | 0.01 µM |
| O=C(N1CCN(c2noc(-c3ccc4cnn(C5COC5)c4c3)n2)CC1)C12CC(C1)C2 [Compound 843] | > 45 µM | 0.033 µM |
